# Assay results taken from ChEMBL document CHEMBL5370585, “Exploration and Biological Evaluation of 1,3-Diamino-7H-pyrrol[3,2-f]quinazoline Derivatives as Dihydrofolate Reductase Inhibitors” (J Med Chem, 2023).
# Calls of active or inactive are those of the source. No cut-off for these calls is given here.
# How the values were obtained:
# [1] = tested on: Staphylococcus aureus; assay: Antibacterial activity against methicillin-sensitive Staphylococcus aureus ATCC 29213 incubated for 16 to 18 hrs by CLSI based broth dilution method; assay type: functional; conditions: time 16-18 hrs
# [2] = tested on: HGC-27; assay: Cytotoxicity against human HGC-27 cells measured after 72 hrs by MTT assay; assay type: functional, cell-based; conditions: HGC-27, 72 h
# [3] = tested on: Staphylococcus aureus; assay: Antibacterial activity against vancomycin intermediate Staphylococcus aureus ATCC 700788 incubated for 16 to 18 hrs by CLSI based broth dilution method; assay type: functional; conditions: time 16-18 hrs
# [4] = tested on: Staphylococcus aureus; assay: Antibacterial activity against methicillin-resistant Staphylococcus aureus ATCC 43300 incubated for 16 to 18 hrs by CLSI based broth dilution method; assay type: functional; conditions: time 16-18 hrs
# [5] = tested on: Staphylococcus aureus; assay: Antibacterial activity against vancomycin intermediate Staphylococcus aureus ATCC 700699 incubated for 16 to 18 hrs by CLSI based broth dilution method; assay type: functional; conditions: time 16-18 hrs
# [6] = Toxicity in BALB/c mouse xenografted with mouse EMT6 cells at 5 mg/kg, ip administered every 3 days for 14 consecutive days; assay type: organism-based; conditions: in vivo, 336 h, time 14 day
# [7] = Toxicity in BALB/c mouse xenografted with mouse EMT6 cells assessed as effect on body weight at 10 mg/kg, ip measured on day 14 (reference value: 21.6 +/-0.6g); assay type: organism-based; conditions: in vivo, 336 h, time 14 day
# [8] = tested on: Acinetobacter baumannii; assay: Antibacterial activity against Acinetobacter baumannii 20-2 incubated for 16 to 18 hrs by CLSI based broth dilution method; assay type: functional; conditions: time 16-18 hrs
# [9] = tested on: Enterococcus faecalis; assay: Antibacterial activity against Enterococcus faecalis EFA19-1 incubated for 16 to 18 hrs by CLSI based broth dilution method; assay type: functional; conditions: time 16-18 hrs
# [10] = tested on: Staphylococcus aureus; assay: Antibacterial activity against methicillin-resistant Staphylococcus aureus ATCC 43300 incubated for 16 to 18 hrs in presence of human plasma by CLSI based broth dilution method; assay type: functional; conditions: time 16-18 hrs
# [11] = tested on: Acinetobacter baumannii; assay: Antibacterial activity against Acinetobacter baumannii ATCC 19606 assessed as reduction in microbial growth incubated for 16 to 18 hrs by CLSI based broth dilution method; assay type: functional; conditions: time 16-18 hrs
# [12] = tested on: Escherichia coli; assay: Antibacterial activity against Escherichia coli ECO 15-1 incubated for 16 to 18 hrs by CLSI based broth dilution method; assay type: functional; conditions: time 16-18 hrs
# [13] = tested on: Pseudomonas aeruginosa; assay: Antibacterial activity against Pseudomonas aeruginosa ATCC 27853 incubated for 16 to 18 hrs by CLSI based broth dilution method; assay type: functional; conditions: time 16-18 hrs
# [14] = tested on: EMT6; assay: Antitumor activity against mouse EMT6 cells xenografted in BALB/c mouse model assessed as tumor growth inhibition at 5 mg/kg,ip administered every 3 days for 14 consecutive days relative to control; assay type: functional; design: scale not given: the % may be the effect or the level left; conditions: time 14 day
# [15] = tested on: Acinetobacter baumannii; assay: Antibacterial activity against Acinetobacter baumannii 20-1 incubated for 16 to 18 hrs by CLSI based broth dilution method; assay type: functional; conditions: time 16-18 hrs
# [16] = tested on: Escherichia coli; assay: Antibacterial activity against Escherichia coli ATCC 25922 incubated for 16 to 18 hrs in absence of human plasma by CLSI based broth dilution method; assay type: functional; conditions: time 16-18 hrs
# [17] = tested on: Acinetobacter baumannii; assay: Antibacterial activity against Acinetobacter baumannii ATCC 19606 incubated for 16 to 18 hrs by CLSI based broth dilution method; assay type: functional; conditions: time 16-18 hrs
# [18] = tested on: Staphylococcus aureus; assay: Antibacterial activity against methicillin-sensitive Staphylococcus aureus 15-1 incubated for 16 to 18 hrs by CLSI based broth dilution method; assay type: functional; conditions: time 16-18 hrs
# [19] = tested on: Enterococcus; assay: Antibacterial activity against Vancomycin-resistant Enterococcus ATCC 51575 incubated for 16 to 18 hrs by CLSI based broth dilution method; assay type: functional; conditions: time 16-18 hrs
# [20] = tested on: Staphylococcus aureus; assay: Antibacterial activity against methicillin-resistant Staphylococcus aureus ATCC 43300 incubated for 16 to 18 hrs in absence of human plasma by CLSI based broth dilution method; assay type: functional; conditions: time 16-18 hrs
# [21] = Toxicity in BALB/c mouse xenografted with mouse EMT6 cells assessed as effect on body weight at 10 mg/kg, ip measured on day 1 (reference value: 18.5 +/-0.5g); assay type: organism-based; conditions: in vivo, 24 h, time 1 day
# [22] = tested on: Enterococcus faecalis; assay: Antibacterial activity against Enterococcus faecalis EFA19-2 incubated for 16 to 18 hrs by CLSI based broth dilution method; assay type: functional; conditions: time 16-18 hrs
# [23] = tested on: EMT6; assay: Antitumor activity against mouse EMT6 cells xenografted in BALB/c mouse model assessed as tumor weight at 10 mg/kg,ip administered every 3 days for 14 consecutive days (reference value: 1.53 +/-0.26g); assay type: functional; conditions: time 14 day
# [24] = tested on: Staphylococcus epidermidis; assay: Antibacterial activity against Staphylococcus epidermidis ATCC 12228 incubated for 16 to 18 hrs by CLSI based broth dilution method; assay type: functional; conditions: time 16-18 hrs
# [25] = tested on: Klebsiella pneumoniae; assay: Antibacterial activity against Klebsiella pneumoniae 15-1 assessed as reduction in microbial growth incubated for 16 to 18 hrs by CLSI based broth dilution method; assay type: functional; conditions: time 16-18 hrs
# [26] = tested on: HepG2; assay: Cytotoxicity against human HepG2 cells measured after 72 hrs by MTT assay; assay type: functional, cell-based; conditions: HepG2, 72 h
# [27] = tested on: EMT6; assay: Antitumor activity against mouse EMT6 cells xenografted in BALB/c mouse model assessed as tumor weight at 5 mg/kg,ip administered every 3 days for 14 consecutive days (reference value: 1.53 +/-0.26g); assay type: functional; conditions: time 14 day
# [28] = tested on: Staphylococcus aureus; assay: Antibacterial activity against Staphylococcus aureus ATCC 29213 incubated for 16 to 18 hrs in presence of human plasma by CLSI based broth dilution method; assay type: functional; conditions: time 16-18 hrs
# [29] = tested on: Escherichia coli; assay: Antibacterial activity against Escherichia coli ATCC 25922 incubated for 16 to 18 hrs in presence of human plasma by CLSI based broth dilution method; assay type: functional; conditions: time 16-18 hrs
# [30] = tested on: Escherichia coli; assay: Antibacterial activity against Escherichia coli ATCC 25922 assessed as inhibition of bacterial growth at upto 8 times MIC measured upto 28 hrs by time kill curve assay; assay type: functional, organism-based
# [31] = tested on: MCF7; assay: Cytotoxicity against human MCF7 cells measured after 72 hrs by MTT assay; assay type: functional, cell-based; conditions: MCF7, 72 h
# [32] = Toxicity in BALB/c mouse xenografted with mouse EMT6 cells assessed as effect on body weight at 5 mg/kg, ip measured on day 14 (reference value: 21.6 +/-0.6g); assay type: organism-based; conditions: in vivo, 336 h, time 14 day
# [33] = tested on: Staphylococcus aureus; assay: Antibacterial activity against Staphylococcus aureus ATCC 29213 incubated for 16 to 18 hrs by CLSI based broth dilution method; assay type: functional; conditions: time 16-18 hrs
# [34] = tested on: Escherichia coli; assay: Antibacterial activity against Escherichia coli ATCC BAA-2340 incubated for 16 to 18 hrs by CLSI based broth dilution method; assay type: functional; conditions: time 16-18 hrs
# [35] = tested on: HCT-116; assay: Cytotoxicity against human HCT-116 cells measured after 72 hrs by MTT assay; assay type: functional, cell-based; conditions: HCT-116, 72 h
# [36] = tested on: EMT6; assay: Antitumor activity against mouse EMT6 cells xenografted in BALB/c mouse model assessed as tumor growth inhibition at 10 mg/kg,ip administered every 3 days for 14 consecutive days relative to control; assay type: functional; design: scale not given: the % may be the effect or the level left; conditions: time 14 day
# [37] = tested on: Staphylococcus aureus; assay: Antibacterial activity against Staphylococcus aureus ATCC 29213 incubated for 16 to 18 hrs in absence of human plasma by CLSI based broth dilution method; assay type: functional; conditions: time 16-18 hrs
# [38] = tested on: Staphylococcus aureus; assay: Antibacterial activity against methicillin-sensitive Staphylococcus aureus ATCC 25923 incubated for 16 to 18 hrs by CLSI based broth dilution method; assay type: functional; conditions: time 16-18 hrs
# [39] = tested on: Staphylococcus aureus; assay: Antibacterial activity against methicillin-resistant Staphylococcus aureus ATCC 33591 incubated for 16 to 18 hrs by CLSI based broth dilution method; assay type: functional; conditions: time 16-18 hrs
# [40] = Toxicity in BALB/c mouse xenografted with mouse EMT6 cells assessed as effect on body weight at 5 mg/kg, ip measured on day 1 (reference value: 18.5 +/-0.5g); assay type: organism-based; conditions: in vivo, 24 h, time 1 day
# [41] = molecular target: T1, Dihydrofolate reductase (Homo sapiens) (UniProt P00374); assay: Inhibition of human DHFR at 1 uM incubated for 10 mins in presence of NADPH by colorimetry based analysis relative to control
# T1 sequence (whole entry): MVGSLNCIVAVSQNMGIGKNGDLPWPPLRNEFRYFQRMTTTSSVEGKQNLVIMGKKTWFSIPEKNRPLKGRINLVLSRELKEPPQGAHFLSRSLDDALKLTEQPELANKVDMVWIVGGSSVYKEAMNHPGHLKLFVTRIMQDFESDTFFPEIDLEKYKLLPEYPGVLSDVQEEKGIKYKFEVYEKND
# [42] = tested on: Escherichia coli; assay: Antibacterial activity against Escherichia coli ATCC 25922 incubated for 16 to 18 hrs by CLSI based broth dilution method; assay type: functional; conditions: time 16-18 hrs
# [43] = tested on: Staphylococcus aureus; assay: Antibacterial activity against methicillin-resistant Staphylococcus aureus ATCC 43300 assessed as inhibition of bacterial growth at upto 8 times MIC measured upto 28 hrs by time kill curve assay; assay type: functional, organism-based
# [44] = tested on: Staphylococcus aureus; assay: Antibacterial activity against methicillin-sensitive Staphylococcus aureus 15-2 incubated for 16 to 18 hrs by CLSI based broth dilution method; assay type: functional; conditions: time 16-18 hrs
# [45] = tested on: Enterococcus faecalis; assay: Antibacterial activity against Enterococcus faecalis ATCC 29212 incubated for 16 to 18 hrs by CLSI based broth dilution method; assay type: functional; conditions: time 16-18 hrs
# [46] = tested on: EMT6; assay: Antitumor activity against mouse EMT6 cells xenografted in ip dosed BALB/c mouse model assessed as delay in tumor progression administered every 3 days for 14 consecutive days; assay type: functional, organism-based; conditions: time 14.0 day
# [47] = tested on: Klebsiella pneumoniae; assay: Antibacterial activity against Klebsiella pneumoniae ATCC 700603 assessed as reduction in microbial growth incubated for 16 to 18 hrs by CLSI based broth dilution method; assay type: functional; conditions: time 16-18 hrs
structure (smiles),measurement,setting,value
Nc1nc(N)c2c(ccc3c2ccn3Cc2nc3ccccc3s2)n1,MIC,[1],≤ 0.03 µg/mL
same,IC50,[2],1 nM
same,MIC,[3],≤ 0.03 µg/mL
same,MIC,[4],0.016 µg/mL
same,MIC,[5],0.25 µg/mL
same,Activity,[6],Non-Toxic
same,Activity,[7],14.3 g
same,MIC,[8],1 µg/mL
same,MIC,[9],≤ 0.03 µg/mL
same,MIC,[10],1 µg/mL
same,MIC,[11],1 µg/mL
same,MIC,[12],> 64 µg/mL
same,MIC,[13],> 64 µg/mL
same,Activity,[14],72.9%
same,MIC,[15],16 µg/mL
same,MIC,[16],0.03 µg/mL
same,MIC,[17],1 µg/mL
same,MIC,[18],≤ 0.03 µg/mL
same,MIC,[19],≤ 0.03 µg/mL
same,MIC,[20],0.016 µg/mL
same,Activity,[21],18.6 g
same,MIC,[22],≤ 0.03 µg/mL
same,Activity,[23],0.44 g
same,MIC,[24],≤ 0.004 µg/mL
same,MIC,[25],2 µg/mL
same,IC50,[26],34 nM
same,Activity,[27],0.41 g
same,MIC,[28],2 µg/mL
same,MIC,[29],1 µg/mL
same,Activity,[30],Active
same,IC50,[31],110 nM
same,Activity,[32],15.1 g
same,MIC,[33],0.06 µg/mL
same,MIC,[34],> 64 µg/mL
same,IC50,[35],2 nM
same,Activity,[36],71.1%
same,MIC,[37],0.06 µg/mL
same,MIC,[38],0.06 µg/mL
same,MIC,[39],≤ 0.03 µg/mL
same,Activity,[40],18.5 g
same,inhibition,[41],96%
same,MIC,[42],0.03 µg/mL
same,Activity,[43],Active
same,MIC,[44],≤ 0.03 µg/mL
same,MIC,[45],≤ 0.004 µg/mL
same,Activity,[46],Dose-Dependent Effect
same,MIC,[47],2 µg/mL
